From US11802107B2, “Compounds and methods of use” (Signum Biosciences, Inc., priority 2017, dated 2023)

Legend:
IL-10 = experiment: T-cell receptor (anti-CD3/CD28)-induced IL-10 on PBMCs; type: cell-based; settings: Homo sapiens, PBMC, anti-CD3/CD28 beads, 24 hours, ELISA, read-out: TCR-PBMCs IL-10 Protein IC50
Description: (§1) Cryopreserved human Peripheral Blood Mononuclear cells (PBMCs) from healthy adult donors were obtained from Zen Bio, Inc (Cat No. SER-PBMC-F). Cells were cultured in 96-well plates with lymphocyte media (Cat No. LYMPH-1) and were pre-treated with test materials (≤100 μM) for 2 hours and later co-treated with test materials and anti-CD3/CD28 beads (Thermo-Fisher; Cat No. 11131D) at 1:0.4 PBMC:bead ratio for 24 hours at 37° C. and 5% CO2. After incubation, cell media supernatants were harvested and used to measure cytokine levels (IL-4, IL-5, IL-10) using ELISA kits (BD Biosciences® #555194, #555157; R&D Systems® #DY317). Results were represented as percent of inhibition relative to untreated and anti-CD3/CD28 beads-only treated cells. IC50 values were determined by non-linear regression analysis using the four-parameter logistic equation.

IL-23 = experiment: LPS/IFNγ-induced IL-23 on CD14+ monocytes; type: cell-based; settings: Homo sapiens, Monocyte, 50 μg/mL LPS + 5 μg/mL IFNγ, 24 hours, ELISA
Description: Cryopreserved human peripheral blood monocytes cells (CD14+) from healthy adult donors were obtained from Zen Bio, Inc (Cat No. SER-CD4-F). Cells were cultured in 96-well plates with lymphocyte media (Cat No. LYMPH-1) and were pre-treated with test materials (≤100 μM) for 2 hours and later co-treated with test materials and 50 μg/mL LPS, 5 μg/mL IFNγ (Sigma Aldrich, Cat No. L4321, SRP3058) and incubated for 24 hours at 37° C. and 5% CO2. After incubation, cell media supernatants were harvested and used to measure cytokine levels (IL-23) using ELISA kits (R&D Systems® #DY1290). Results were represented as percent of inhibition relative to untreated and […] treated cells. IC50 values were determined by non-linear regression analysis using the four-parameter logistic equation.

TNF (TNF-α) = experiment: P. acnes-induced TNF-α gene on human PBMCs (qPCR); type: cell-based; settings: PBMC, PBMCs + live P. acnes 1:1, test material 30 PM, 24 hours, read-out: TNFa-Gene % inhibition
Description: (§2) Cryopreserved human Peripheral Blood Mononuclear cells (PBMCs) from healthy adult donors were obtained from Zen Bio, Inc (Cat No. SER-PBMC-F). Cells were cultured in 12-well plates with lymphocyte media (Cat No. LYMPH-1) and incubated with test materials ([…]) and live P. acnes (ATCC® 6919TM) at 1:1 PBMC: P. acnes bacteria ratio for 24 hours at 37° C. and 5% CO2. After incubation, cell media supernatants were harvested and used to measure pro-inflammatory cytokine levels (IL-8, TNF-α, IL-1b, IL-17) using ELISA kits (BD Biosciences® #557966, #555212, #555244; R&D Systems® #DY317). Total RNA was extracted from cells using the RNAqueous® kit (Ambion®; Cat No. 1912) and cDNA was obtained using the High Capacity RNA-to-cDNA kit (Applied Biosystems®; Cat No. 4387406). Quantitative PCR (qPCR) was performed using the TaqMan® Fast Advanced Master Mix (Applied Biosystems®; Cat No. 4444556) and specific TaqMan®-probes human gene primers CXCL8 (IL-8), IL1B (IL-1b), TNF (TNF-α), IL17A (IL-17A) and GAPDH to calculate the relative gene fold expression change per treatment. Gene expression analysis was performed using the comparative Ct method (also known as the 2-[delta][delta]Ct) approach by comparing the Ct values of P. acnes-only treated cells with the untreated samples and normalized to GAPDH gene expression as endogenous housekeeping gene.

TNF-α = experiment: P. acnes-induced TNF-α protein on human PBMCs (ELISA); type: cell-based; settings: PBMCs + live P. acnes 1:1, test material 30 PM, 24 hours
Description: as §2

HCAP18 = experiment: NHEK antimicrobial peptide gene expression, hCAP18; type: cell-based, human; settings: 10 μM, 24 hours, qPCR, normalized to GAPDH
Description: Normal human epidermal keratinocytes (NHEKs) from neonatal donors were obtained from Thermo-Fisher (Cat No. C-001-5C). Cells were cultured in 6-well plates for 24 hours before treatments with EpiLife media (Cat No. MEPI500CA) supplemented with keratinocytes growth supplement (Cat No. 50015). On Day 2, media was removed and incubated with test materials (10 μM) for 24 hours at 37° C. and 5% CO2. On Day 3, total RNA was extracted from cells using the RNAqueous® kit (Ambion®; Cat No. 1912) and cDNA was obtained using the High Capacity RNA-to-cDNA kit (Applied Biosystems®; Cat No. 4387406). Quantitative PCR (qPCR) was performed using the TaqMan® Fast Advanced Master Mix (Applied Biosystems®; Cat No. 4444556) and specific TaqMan®-probes human gene primers DEFB4B (hBD2), DEFB103 (hBD3), HCAP18 and GAPDH to calculate the relative gene fold expression change per treatment. Gene expression analysis was performed using the comparative Ct method (also known as the 2-[delta][delta]Ct) approach by comparing the Ct values of the treated samples with the untreated samples and normalized to GAPDH gene expression as endogenous housekeeping gene. Results were represented as fold-expression/untreated cells.

CXCL8 (IL-8) = experiment: P. acnes-induced IL-8 gene on human PBMCs (qPCR); type: cell-based; settings: PBMC, PBMCs + live P. acnes 1:1, test material 30 PM, 24 hours
Description: as §2

IL-4 = experiment: T-cell receptor (anti-CD3/CD28)-induced IL-4 on PBMCs; type: cell-based; settings: Homo sapiens, PBMC, anti-CD3/CD28 beads, 24 hours, ELISA, read-out: TCR-PBMCs IL-4 Protein IC50
Description: as §1

IL-8 = experiment: TPA-induced IL-8 on NHEKs; type: cell-based; settings: Homo sapiens; NHEK, TPA 5 ng/mL, 24 hours, ELISA
Description: Normal human epidermal keratinocytes (NHEKs) from neonatal donors were obtained from Thermo-Fisher (Cat No. C-001-5C). Cells were cultured in 96-well plates for 24 hours with EpiLife media (Cat No. MEPI500CA) supplemented with keratinocytes growth supplement (Cat No. S0015). On Day 2, media was removed and replaced with supplement-depleted medium for 24 hours. On Day 3, media was removed and cells were pre-treated with test materials (≤1 μM) for 2 hours and later co-treated with test materials and TPA (Sigma Aldrich, Cat No. P8139) at 5 ng/mL and incubated for 24 hours at 37° C. and 5% CO2. After incubation, cell media supernatants were harvested and used to measure pro-inflammatory cytokine levels (IL-8) using ELISA kit (BD Biosciences® #555244). Results were represented as percent of inhibition relative to untreated and TPA-only treated cells. IC50 values were determined by non-linear regression analysis using the four-parameter logistic equation.

Compound | IC50 (IL-10) | IC50 (IL-23) | inhibition at 30 pM (TNF (TNF-α)) | TNFa-Protein % inhibition (TNF-α) | hCAP18 gene expression (HCAP18) | inhibition at 30 pM (CXCL8 (IL-8)) | IC50 (IL-4) | IC50 (IL-8)
C/C(=C\CSC[C@H](NC(=O)N1CCC[C@H]1C(=O)O)C(=O)O)CCCC(C)CCCC(C)CCCC(C)C (some centres unmarked) [Compound E] | 39 µM | 11.2 µM | 0% | 0% | 0.7 Fold-expression/untreated cells | 8% | 42 µM | –
C/C(=C\CSCC(NC(=O)NCC(=O)O)C(=O)O)CCCC(C)CCCC(C)CCCC(C)C (centres unmarked) [A] | 42 µM | – | – | – | – | – | > 100 µM | –
C/C(=C\CSC[C@H](NC(=O)COCC(=O)O)C(=O)O)CCCC(C)CCCC(C)CCCC(C)C (some centres unmarked) [Compound T] | 19 µM | 0.05 µM | 0% | – | – | 0% | 25 µM | 0.03 µM
N#Cc1ccc(Oc2ccc3c(c2)COB3O)cc1 [AN2728, reference compound] | 9 µM | 0.65 µM | – | – | – | – | 2 µM | 0.02 µM
C/C(=C\CSC[C@H](NC(=O)N(C)CC(=O)O)C(=O)O)CCCC(C)CCCC(C)CCCC(C)C (stereo partly drawn) [Compound C, (2R)-2-{[(carboxymethyl)(methyl)carbamoyl]amino}-3-{[(2E)-3,7,11,15-tetramethylhexadec-2-en-1-yl]sulfanyl}propanoic acid] | 34 µM | 0.19 µM | 0% | 0% | 0.5 Fold-expression/untreated cells | 0% | 20 µM | 0.02 µM
C/C(=C\CSCC(NC(=O)N(CC(=O)O)CC(=O)O)C(=O)O)CCCC(C)CCCC(C)CCCC(C)C (centres unmarked) [Compound G] | – | 3.08 µM | 0% | 0% | 0.6 Fold-expression/untreated cells | 0% | – | –
